The values below come from patent US20250290915A1, “METHOD FOR PREDICTING RESPONSIVENESS TO THERAPY” (CANCERTAIN LIMITED, priority 2022, published 2025).

The test system of test [1] is cancer cells derived from the tissue sample of a patient with osteosarcoma. The test is described as follows: Drug response score assay on tissue sample, Example 10. The test is classed as cell-based, human. Also noted: key to Drug response score, conc. 1 / Drug response score, conc. 2 / Drug response score, conc. 3 / Drug response score, conc. 4: normalized drug response metric per Gupta et al. 2020. As to conditions: for effectiveness on the cancer cells derived from the tissue sample under laboratory conditions / Drug sensitivity as calculated by the assay (interpretation of Drug Response Scores): osteosarcoma tissue sample; for Drug sensitivity as calculated by the assay (interpretation of Drug Response Scores): Table 33; for Drug response score, conc. 1 / Drug response score, conc. 2 / Drug response score, conc. 3 / Drug response score, conc. 4: tissue sample; for Drug response score, conc. 1: conc. 1 per Table 31: Etop 1, DTIC 1.5, Ifos 0.125, Doce 0.02, Irinotecan 5 μg/ml; for Drug response score, conc. 2: conc. 2 per Table 31: Etop 4, DTIC 3, Ifos 0.25, Doce 0.2, Irinotecan 10 μg/ml; for Drug response score, conc. 3: conc. 3 per Table 31: Etop 20, DTIC 6, Ifos 5, Doce 2, Irinotecan 25 μg/ml; for Drug response score, conc. 4: conc. 4 per Table 31: Etop 100, DTIC 12, Ifos 10, Doce 10, Irinotecan 50 μg/ml. The procedure:
Where a tissue sample was provided by each subject, cancer stem cells (CSCs, CD133^+), were isolated from said sample. Tumour marker cells were further isolated from each tissue sample. The remaining cells were designated tumour marker^+ cells.
First, disaggregation of the tissue samples was carried out. Disaggregation was dependent on the size of the tissue sample and the method of retrieval: • EBUS (Endobronchial Ultrasound Scan and Biopsy)—very small fragments of tissue in solution-spun at 1200 rpm for 5 minutes to collect tissue pellet • Bronchoscopy-larger fragments with larger amount of blood vessels • Broncho-lavage-similar to EBUS, spun at 1200 rpm for 5 minutes to collet tissue pellet
Once a pellet of tissue obtained, DMEM added to the tissue pellet and the material forced through a […] Smart strainer. Once a cell suspension was achieved, this was spun at 1200 rpm for 5 minutes and the supernatant removed. The cells were then resuspended to a volume of 60 μl.
20 μl of FcR block and 20 μl of CD133 microbeads were added to the resuspended cells, followed by incubation for 15 minutes at 4° C. The cells were then processed using an AutoMACS machine. This separates the […] into CD133^+ and CD133^− cells in 2 separate falcons. The falcon tubes are then centrifuged at 1200 rpm for 5 minutes.
The supernatant was removed from the CD133+falcon tube, and the cells resuspended in DMEM with 2 μl Cell Tox, 2 μl MT and 2 μl MT. 20 μl of the resuspended […] was then plated in each well which will contain an immunotherapy treatment.
The supernatant was removed from the CD133^− falcon tube, and the CD133^− cells contacted with 40 μl of a tumour separation microbeads cocktail containing microbeads bound to anti-CD31, anti-CD45, anti-Glycophorin-A (Gly-A) and an anti-fibroblast antibody.
This cocktail is used to separate out tumour marker cells using MACS, by separating out CD31^+, CD45^+ and Gly-A^+ cells. In addition, anti-fibroblast antibody-labelled beads are also used. The cocktail is added to the CD133^− falcon tube, followed by incubation for 15 minutes at 4° C. MACS is carried out using an AutoMACS machine. This cells which are not bound by the CD31, CD45, Gly-A and anti-fibroblast antibody beads are the tumour marker^+ cells.
(§1) The different cell types were each divided equally into populations, depending on the number of drugs/concentrations to be tested and plated on a cell-culture plate pre-coated with a scaffold of polycaprolactone (PCL) electrospun fibres and incubated at 37° C., 5% CO2, for 5 to (typically 10) minutes to facilitate cell attachment. After attachment, an initial imaging step was carried out using the RealTime-Glo™ MT assay from Promega (Catalogue No. G9711)) and the CellTox™ Green Cytotoxicity Assay (Promega, Catalogue No. G8741), carried out according to manufacturer's instructions. Following this initial imagining, the immunotherapeutic and/or chemotherapeutic agents were added to the cell populations as indicated below. After 10 minutes, the imagining step was repeated. The cell populations were then incubated at 37° C., 5% CO2 for 48 hours. The imaging step was then repeated. The cell populations were then re-dosed with the same immunotherapeutic and/or chemotherapeutic agents as indicated below, and incubated at 37° C., 5% CO2 for a further 48 hours. After this second 48 hour incubation, the imagining step was repeated for a final time.
At the end of this culture period, dose response scores were calculated using a normalized drug response metric as described in Gupta et al. (Communications Biology volume 3, Article number: 42 (2020), https://doi.org/10.1038/s42003-020-0765-z). The start readout for a given immunotherapeutic or chemotherapeutic agent at a given concentration was the to readout for said immunotherapeutic or chemotherapeutic agent at a specified concentration. […]

Test [2] deals with Circulating Tumour Cells (CTCs, EpCam+CD45−) from a patient with stage II synovial sarcoma. The test is described as follows: Drug response score assay (RealTime-Glo MT / CellTox Green, PCL scaffold) on CTCs from blood, Example 1. The test is classed as cell-based, human. Also noted: key to Drug response score, conc. 1 / Drug response score, conc. 2 / Drug response score, conc. 3 / Drug response score, conc. 4: normalized drug response metric per Gupta et al. 2020. As to conditions: for Drug response score, conc. 1: conc. 1: Doxo 10 ng/ml, Ifos 0.125 μg/ml, Gemcit 2 μg/ml, Doce 0.02 μg/ml, Carbo 2 μg/ml, Dacarb 1.5 μg/ml, re-dosed at 48 h; for Drug response score, conc. 1 / Drug response score, conc. 2 / Drug response score, conc. 3 / Drug response score, conc. 4: CTCs, t96h; for Drug response score, conc. 2: conc. 2: Doxo 30 ng/ml, Ifos 0.25 μg/ml, Gemcit 10 μg/ml, Doce 0.2 μg/ml, Carbo 5 μg/ml, Dacarb 3 μg/ml; for Drug response score, conc. 3: conc. 3: Doxo 90 ng/ml, Ifos 5 μg/ml, Gemcit 20 μg/ml, Doce 2 μg/ml, Carbo 10 μg/ml, Dacarb 6 μg/ml; for Drug response score, conc. 4: conc. 4: Doxo 270 ng/ml, Ifos 10 μg/ml, Gemcit 40 μg/ml, Doce 10 μg/ml, Carbo 20 μg/ml, Dacarb 12 μg/ml; for Drug sensitivity as calculated by the assay (interpretation of Drug Response Scores): Table 5. The procedure: CD45^+ cells and circulating tumour cells (CTCs) were isolated from a blood sample provided by each subject.
CD45 separation was performed by adding human CD45 microbeads (50 μl/ml blood), incubating for 15 minutes at 4° C. and then processing using an AutoMACS machine. This separates the blood sample into CD45^+ and CD45^−cells in 2 separate falcons. The falcon tubes are then centrifuged at 1200 rpm for 5 minutes.
The supernatant was removed from the CD45^−falcon tube, and the CD45^−cells contacted with 100 μl of FcR block and 100 μl of CD326 (EpCAM) MicroBeads, followed by incubation at […] 4° C. for 30 minutes. The CD45^−cells were then processed using an AutoMACS machine to separate the EpCAM positive and negative cells into 2 separate falcon tubes. The EpCAM-cells were discarded. The supernatant was removed from the EpCAM^+ cells, and the cells resuspended in DMEM with 2 μl Cell Tox, 2 μl MT and 2 μl MT. 20 μl of the resuspended pellet was then added to all sample wells excluding a blank. After all wells are added to, a cell count was conducted on the […] to determine the number of circulating tumour cells (CTCs).
as §1
At the end of this culture period, dose response scores were calculated using a normalized drug response metric as described in Gupta et al. (Communications Biology volume 3, Article number: 42 (2020), https://doi.org/10.1038/s42003-020-0765-z). The start readout for a given immunotherapeutic or chemotherapeutic agent at a given concentration was the to readout for said immunotherapeutic or chemotherapeutic agent at a specified concentration. The end readout for a given immunotherapeutic or chemotherapeutic agent at a given concentration was the final timepoint reading (t96h) for said immunotherapeutic or chemotherapeutic agent at a specified concentration.
The positive control start readout for a given drug/concentration was the to readout for the corresponding drug at a specified concentration. The positive control end readout for the corresponding drug at a specified concentration was the final timepoint reading (t96h) for the corresponding blank well.
The negative control start and end readouts for a given immunotherapeutic or chemotherapeutic agent at a given concentration were the to and final timepoint reading (t96h) respectively for blank cell or blank immuno cell well respectively.
The sensitivity or resistance of a subject's cancer to a given immunotherapeutic or chemotherapeutic agent was determined based on the calculated drug response score as shown in Table 2.
Blood samples from a patient with stage II synovial sarcoma (suspected spindle cell tumour) were received and tested using a 6 drug panel.
Chemotherapeutic agents were tested as in Table 3.

For the molecule `CC(=O)O[C@@]12CO[C@@H]1C[C@H](O)[C@@]1(C)C(=O)[C@H](O)C3=C(C)[C@@H](OC(=O)[C@H](O)[C@@H](NC(=O)OC(C)(C)C)c4ccccc4)C[C@@](O)([C@@H](OC(=O)c4ccccc4)[C@H]21)C3(C)C` [Docetaxel], in test [1], the “effectiveness on the cancer cells derived from the tissue sample under laboratory conditions” value is recorded as “resistant”; the “Drug sensitivity as calculated by the assay (interpretation of Drug Response Scores)” value (shortened to “Drug sensitivity as calculated”) was “Resistant”; the “Drug response score, conc. 1” value was −0.5113; the “Drug response score, conc. 2” value came to 1.0268. Also, in test [1], the “Drug response score, conc. 3” value was 0.6693 and the “Drug response score, conc. 4” value is on record as −0.6056. In test [2], the “Drug response score, conc. 1” value is 0.8633; the “Drug response score, conc. 2” value turned out to be 0.7451; the “Drug response score, conc. 3” value is on record as 0.6992; the “Drug response score, conc. 4” value is listed as 0.4852. The “Drug sensitivity as calculated” value in test [2] (synovial sarcoma CTCs) is on record as “Sensitive (S+)”.
With `COc1cccc2c1C(=O)c1c(O)c3c(c(O)c1C2=O)C[C@@](O)(C(=O)CO)C[C@@H]3O[C@H]1C[C@H](N)[C@H](O)[C@H](C)O1` [Doxorubicin], in test [2], the “Drug response score, conc. 1” value worked out at 0.9432; the “Drug response score, conc. 2” value is 0.7234; the “Drug response score, conc. 3” value came to 0.8842; the “Drug response score, conc. 4” value is reported as 0.8405. In test [2] (synovial sarcoma CTCs), the “effectiveness on Circulating Tumour Cells under laboratory conditions” value is reported as “marginally less effective compared to other drugs” and the “Drug sensitivity as calculated” value is “Sensitive (S+)”.
As to `COc1cc([C@@H]2c3cc4c(cc3[C@@H](O[C@@H]3O[C@@H]5CO[C@@H](C)O[C@H]5[C@H](O)[C@H]3O)[C@H]3COC(=O)[C@H]23)OCO4)cc(OC)c1O` [Etoposide], in test [1], the “effectiveness on the cancer cells derived from the tissue sample under laboratory conditions” value is “show effectiveness”; the “Drug sensitivity as calculated” value is “Sensitive (S+)”; the “Drug response score, conc. 1” value was 0.4829; the “Drug response score, conc. 2” value is listed as 0.0653. Further, in test [1], the “Drug response score, conc. 3” value was −0.4472 and the “Drug response score, conc. 4” value was determined as 0.0955.
Take `O=P1(NCCCl)OCCCN1CCCl` (stereo not shown) [Ifosfamide]: in test [1], the “effectiveness on the cancer cells derived from the tissue sample under laboratory conditions” value was “show effectiveness”; the “Drug sensitivity as calculated” value is listed as “Sensitive (S+)”; the “Drug response score, conc. 1” value is given as 0.3183; the “Drug response score, conc. 2” value was 0.8776. Besides, in test [1], the “Drug response score, conc. 3” value is reported as 0.1237 and the “Drug response score, conc. 4” value is listed as −0.8671. In test [2], the “Drug response score, conc. 1” value is 0.7534; the “Drug response score, conc. 2” value stood at 0.6369; the “Drug response score, conc. 3” value was 0.7555; the “Drug response score, conc. 4” value worked out at 0.5976. Further, the “Drug sensitivity as calculated” value in test [2] (synovial sarcoma CTCs) is on record as “Sensitive (S+)”.
